pKi: −log10 of the molar value. Values joined by “and” are separate entries in the source; they are usually repeats but may differ in a detail not shown here. Equal entries are not always repeated.

From US7300941B2, “Non-imidazole compounds” (Schering Corporation, priority 2000, dated 2007) come the findings set out here.

T1 sequence (Q9JI35 whole entry): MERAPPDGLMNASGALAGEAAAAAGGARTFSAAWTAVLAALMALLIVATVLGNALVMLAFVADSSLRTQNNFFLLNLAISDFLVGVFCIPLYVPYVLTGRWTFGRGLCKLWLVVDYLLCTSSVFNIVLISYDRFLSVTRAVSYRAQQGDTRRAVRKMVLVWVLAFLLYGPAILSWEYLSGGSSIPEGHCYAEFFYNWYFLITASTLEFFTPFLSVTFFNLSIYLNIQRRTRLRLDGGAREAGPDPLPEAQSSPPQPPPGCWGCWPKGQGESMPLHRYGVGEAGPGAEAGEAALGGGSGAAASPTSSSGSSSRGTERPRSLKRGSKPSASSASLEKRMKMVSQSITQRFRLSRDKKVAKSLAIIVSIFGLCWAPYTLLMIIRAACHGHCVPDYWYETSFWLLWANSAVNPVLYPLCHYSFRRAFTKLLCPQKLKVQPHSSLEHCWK

The test addresses T1, H3 receptors (Cavia porcellus, UniProt Q9JI35).
T1 construct: The brain tissue was homogenized with a solution of 50 mM Tris, pH 7.5; from tissue; host or cells: guinea pig brain membranes
The test can be described thus: H3-Receptor Binding Assay. The settings on record: guinea pig brain membranes; 3 nM [3H]R-α-methyl histamine or 3 nM [3H]Nα-methyl histamine; 30° C., 30 min. The protocol:
H3-Receptor Binding Assay
The source of the H3 receptors in this experiment was guinea pig brain. The animals weighed 400-600 g. The brain tissue was homogenized with a solution of 50 mM Tris, pH 7.5. The final concentration of tissue in the homogenization buffer was 10% w/v. The homogenates were centrifuged at 1,000×g for 10 min. in order to remove clumps of tissue and debris. The resulting supernatants were then centrifuged at 50,000×g for 20 min. in order to sediment the membranes, which were next washed three times in homogenization buffer (50,000×g for 20 min. each). The membranes were frozen and stored at −70° C. until needed.
All compounds to be tested were dissolved in DMSO and then diluted into the binding buffer (50 mM Tris, pH 7.5) such that the final concentration was 2 μg/ml with 0.1% DMSO. Membranes were then added (400 μg of protein) to the reaction tubes. The reaction was started by the addition of 3 nM [^3H]R-α-methyl histamine (8.8 Ci/mmol) or 3 nM [^3H]N^α-methyl histamine (80 Ci/mmol) and continued under incubation at 30° C. for 30 min. Bound ligand was separated from unbound ligand by filtration, and the amount of radioactive ligand bound to the membranes was quantitated by liquid scintillation spectrometry. All incubations were performed in duplicate and the standard error was always less than 10%. Compounds that inhibited more than 70% of the specific binding of radioactive ligand to the receptor were serially diluted to determine a Ki (nM).
Usually pKi stands for the negative decadic logarithm of the Ki, by convention in mol/L. For the compound `Nc1cc(CN2CCC(C(=O)N3CCC(c4noc5cc(F)ccc45)CC3)CC2)ccn1` [Compound 23], the pKi is 7.48 to 9.60.

In the case of `Nc1cc(CN2CCC(C(=O)N3CCC(C(=O)c4ccccn4)CC3)CC2)ccn1` [Compound 30], the pKi was 7.48 to 9.60 and 7.80 to 9.60. The result for `CON=C(c1ccccn1)C1CCN(C(=O)C2CCN(Cc3ccnc(N)c3)CC2)CC1` [Compound 31] reads 7.48 to 9.60 and 7.80 to 9.60. Take `CO/N=C(/c1ccccn1)C1CCN(C(=O)C2CCN(Cc3ccnc(N)c3)CC2)CC1` [Compound 32]: the pKi was 7.48 to 9.60 and 7.80 to 9.60 and 9.08. The result for `CO/N=C(\c1ccccn1)C1CCN(C(=O)C2CCN(Cc3ccnc(N)c3)CC2)CC1` [Compound 33] reads 7.48 to 9.60 and 7.80 to 9.60. The result for `CON=C(c1ccccn1)C1CCN(C(=O)C2CCN(C(C)c3ccnc(N)c3)CC2)CC1` (stereo not drawn) [Compound 53] reads 7.48 to 9.60; that for `CO/N=C(/c1ccccn1)C1CCN(C(=O)C2CCN([C@@H](C)c3ccnc(N)c3)CC2)CC1` [Compound 54], 7.48 to 9.60 and 7.80 to 9.60 and 8.01 to 8.98; that for `CO/N=C(/c1ccccn1)C1CCN(C(=O)C2CCN([C@H](C)c3ccnc(N)c3)CC2)CC1` [Compound 55], 7.48 to 9.60 and 7.80 to 9.60 and 8.01 to 8.98. The result for `CO/N=C(\c1ccccn1)C1CCN(C(=O)C2CCN([C@@H](C)c3ccnc(N)c3)CC2)CC1` [Compound 56] reads 7.48 to 9.60 and 7.80 to 9.60; that for `CO/N=C(\c1ccccn1)C1CCN(C(=O)C2CCN([C@H](C)c3ccnc(N)c3)CC2)CC1` [Compound 57A], 7.48 to 9.60. `CON=C(c1ccc(Cl)cc1)C1CCN(C(=O)C2(O)CCN(Cc3ccnc(N)c3)CC2)CC1` [Compound 59] had a pKi of 7.48 to 9.60. The result for `CON=C(c1ccc[n+]([O-])c1)C1CCN(C(=O)C2CCN(Cc3ccnc(N)c3)CC2)CC1` [Compound 92] reads 7.48 to 9.60; that for `CCON=C(c1ccc(Cl)cc1)C1CCN(C(=O)C2CCN(Cc3ccnc(N)c3)CC2)CC1` [Compound 212], 7.48 to 9.60. The result for `CON=C(c1ccc(Cl)cc1)C1CCN(C(=O)N2CCN(Cc3ccnc(N)c3)CC2)CC1` [Compound 215] reads 7.48 to 9.60; that for `CON=C(c1cc(Cl)cc(Cl)c1)C1CCN(C(=O)C2CCN(Cc3ccnc(N)c3)CC2)CC1` [Compound 218], 7.48 to 9.60; that for `CON=C(c1ccccc1F)C1CCN(C(=O)C2CCN(Cc3ccnc(N)c3)CC2)CC1` [Compound 219], 7.48 to 9.60.

Turning to `CON=C(c1ccccc1Cl)C1CCN(C(=O)C2CCN(Cc3ccnc(N)c3)CC2)CC1` [Compound 220], the pKi is 7.48 to 9.60. `CO/N=C(\c1ccc(Cl)cc1)C1CCN(C(=O)C2CCN(Cc3ccnc(N)c3)CC2)CC1` [Compound 224] had a negative-log Ki (pKi) of 7.48 to 9.60.

As to `CO/N=C(/c1ccc(Cl)cc1)C1CCN(C(=O)C2CCN(Cc3ccnc(N)c3)CC2)CC1` [Compound 225], the pKi is 7.48 to 9.60 and 7.80 to 9.60. The compound `CO/N=C(/c1ccc(C(F)(F)F)cc1)C1CCN(C(=O)C2CCN(Cc3ccnc(N)c3)CC2)CC1` [Compound 226] had a pKi of 7.48 to 9.60. The result for `CON=C(c1ccc(Cl)cc1)C1CCN(C(=O)C2CCN(C(C)c3ccnc(N)c3)CC2)CC1` (stereo not drawn) [Compound 227] reads 7.48 to 9.60; that for `CCON=C(c1ccc(F)cc1F)C1CCN(C(=O)C2CCN(Cc3ccnc(N)c3)CC2)CC1` [Compound 229], 7.48 to 9.60; that for `CON=C(c1ccc(Cl)cc1Cl)C1CCN(C(=O)C2CCN(C(C)c3ccnc(N)c3)CC2)CC1` (stereo not drawn) [Compound 233], 7.48 to 9.60. The result for `CON=C(c1ccsc1)C1CCN(C(=O)C2CCN(Cc3ccnc(N)c3)CC2)CC1` [Compound 235] reads 7.48 to 9.60; that for `Nc1cc(CN2CCC(C(=O)N3CCC(C(=NO)c4ccccn4)CC3)CC2)ccn1` [Compound 237], 7.48 to 9.60 and 7.80 to 9.60. The result for `CON=C(c1ccccc1)C1CCN(C(=O)C2CCN(Cc3ccnc(N)c3)CC2)CC1` [Compound 238] reads 7.48 to 9.60. For `CCO/N=C(/c1ccccn1)C1CCN(C(=O)C2CCN(Cc3ccnc(N)c3)CC2)CC1` [Compound 246A], the pKi is 7.48 to 9.60 and 7.80 to 9.60.

`CCON=C(c1ccccn1)C1CCN(C(=O)C2CCN(Cc3ccnc(N)c3)CC2)CC1` [Compound 246] had a pKi of 7.48 to 9.60. The result for `Nc1cc(CN2CCC(C(=O)N3CCC(c4noc5ncccc45)CC3)CC2)ccn1` [Compound 247] reads 7.48 to 9.60; that for `CON=C(c1ncccn1)C1CCN(C(=O)C2CCN(Cc3ccnc(N)c3)CC2)CC1` [Compound 248], 7.48 to 9.60; that for `CON=C(c1cccc(S(=O)(=O)N(C)C)c1)C1CCN(C(=O)C2CCN(Cc3ccnc(N)c3)CC2)CC1` [Compound 251], 7.48 to 9.60.

Turning to `CO/N=C(/c1csc(C)n1)C1CCN(C(=O)C2CCN(Cc3ccnc(N)c3)CC2)CC1` [Compound 253A], the pKi is 7.48 to 9.60 and 7.80 to 9.60 and 8.01 to 8.98. `CON=C(c1csc(C)n1)C1CCN(C(=O)C2CCN(Cc3ccnc(N)c3)CC2)CC1` [Compound 253] had a pKi of 7.48 to 9.60. The result for `CO/N=C(/c1ccc(Cl)cc1)C1CCN(C(=O)C2CCN(Cc3ccncc3)CC2)CC1` [Compound 273] reads 7.80 to 9.60; that for `O=C(C1CCN(Cc2ccncc2)CC1)N1CCC(/C(=N\O)c2ccc(F)cc2)CC1` [Compound 275], 7.48 to 9.60. The result for `CON=C(c1ccc(Cl)cc1)C1CCN(C(=O)C2CCN(Cc3ccnc(N)c3)CC2)CC1` [Compound 280] reads 7.80 to 9.60. The result for `CO/N=C(/c1ccccn1)C1CCN(C(=O)C2CCN(Cc3cnc(N)nc3)CC2)CC1` [Compound 287] reads 7.48 to 9.60 and 7.80 to 9.60 and 8.01 to 8.98. Turning to `CON=C(c1ccccn1)C1CCN(C(=O)C2CCN(Cc3ccncc3N)CC2)CC1` [Compound 296], the pKi was 7.48 to 9.60 and 7.80 to 9.60. The result for `CO/N=C(/c1ccccn1)C1CN(C(=O)C2CCN(Cc3ccnc(N)c3)CC2)C1` [Compound 301] reads 7.48 to 9.60 and 7.80 to 9.60. On to `CON=C(C1CCCCC1)C1CCN(C(=O)C2CCN(Cc3ccnc(N)c3)CC2)CC1` [Compound 309], for which the pKi was 7.48 to 9.60 and 7.80 to 9.60. Consider `Nc1cc(CN2CCC(C(=O)N3CCC(C(=O)c4ccc5ccccc5n4)CC3)CC2)ccn1` [Compound 312], for which the pKi is 7.48 to 9.60 and 7.80 to 9.60. Turning to `Nc1cc(CN2CCC(C(=O)N3CCC(/C(=N\OCC(F)(F)F)c4ncccc4F)CC3)CC2)ccn1` [Compound 320], the pKi is 8.01 to 8.98.
